Results as given in ChEMBL document CHEMBL5143696, “Discovery of novel benzothiophene derivatives as potent and narrow spectrum inhibitors of DYRK1A and DYRK1B” (Bioorg Med Chem Lett, 2022).
The source made the active and inactive calls. The calls are words filed in the database; no cut-off is given here.

Assays:
[1] = biological target: T1, Dual specificity tyrosine-phosphorylation-regulated kinase 1A (Homo sapiens, UniProt Q13627); assay: Inhibition of human DYRK1A incubated for 90 mins in presence of ATP by Z-LYTE based FRET assay
[2] = biological target: T2, Dual specificity tyrosine-phosphorylation-regulated kinase 1B (Homo sapiens, UniProt Q9Y463); assay: Inhibition of human DYRK1B incubated for 130 mins in presence of ATP by ADP-Glo kinase assay
Target sequence in this assay (Q9Y463 whole entry, the tested form may be a part): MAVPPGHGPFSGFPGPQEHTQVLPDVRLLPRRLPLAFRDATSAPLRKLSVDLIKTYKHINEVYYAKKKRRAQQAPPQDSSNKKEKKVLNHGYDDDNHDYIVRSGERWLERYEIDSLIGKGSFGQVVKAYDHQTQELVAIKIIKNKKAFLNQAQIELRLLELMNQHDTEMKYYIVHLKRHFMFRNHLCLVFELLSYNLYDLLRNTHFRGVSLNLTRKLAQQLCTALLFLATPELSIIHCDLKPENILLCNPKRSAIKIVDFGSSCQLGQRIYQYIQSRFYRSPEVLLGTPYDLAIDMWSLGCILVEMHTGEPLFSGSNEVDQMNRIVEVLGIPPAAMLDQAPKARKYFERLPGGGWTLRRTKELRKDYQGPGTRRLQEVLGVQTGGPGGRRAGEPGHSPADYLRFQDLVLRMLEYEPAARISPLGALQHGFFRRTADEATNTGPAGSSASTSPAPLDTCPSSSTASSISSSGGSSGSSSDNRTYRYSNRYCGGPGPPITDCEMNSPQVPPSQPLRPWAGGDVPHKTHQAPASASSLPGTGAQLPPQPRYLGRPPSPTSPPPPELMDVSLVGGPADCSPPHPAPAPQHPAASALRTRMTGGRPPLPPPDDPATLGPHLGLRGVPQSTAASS

[3] = biological target: T2, Dual specificity tyrosine-phosphorylation-regulated kinase 1B; assay: Inhibition of NanoLuc-fused human DYRK1B expressed in HEK293T cells using Nano-Glo as substrate incubated for 2 hrs by NanoBRET assay; type: cell-based
Target sequence in this assay (Q9Y463 whole entry, the tested form may be a part): as above

HeLa [4] = assay: Cytotoxicity against human HeLa cells assessed as reduction in cell viability at 30 uM incubated for 24 hrs in presence of staurosporine by MTT assay; type: functional, cell-based
[5] = biological target: T3, Serine/threonine-protein kinase PRP4 homolog (Homo sapiens, UniProt Q13523); assay: Inhibition of human PRP4 using casein as substrate at 1 uM incubated for 120 mins in presence of [gamma-33P-ATP] by radiometric scintillation assay
T3 sequence (Q13523 whole entry, the tested form may be a part): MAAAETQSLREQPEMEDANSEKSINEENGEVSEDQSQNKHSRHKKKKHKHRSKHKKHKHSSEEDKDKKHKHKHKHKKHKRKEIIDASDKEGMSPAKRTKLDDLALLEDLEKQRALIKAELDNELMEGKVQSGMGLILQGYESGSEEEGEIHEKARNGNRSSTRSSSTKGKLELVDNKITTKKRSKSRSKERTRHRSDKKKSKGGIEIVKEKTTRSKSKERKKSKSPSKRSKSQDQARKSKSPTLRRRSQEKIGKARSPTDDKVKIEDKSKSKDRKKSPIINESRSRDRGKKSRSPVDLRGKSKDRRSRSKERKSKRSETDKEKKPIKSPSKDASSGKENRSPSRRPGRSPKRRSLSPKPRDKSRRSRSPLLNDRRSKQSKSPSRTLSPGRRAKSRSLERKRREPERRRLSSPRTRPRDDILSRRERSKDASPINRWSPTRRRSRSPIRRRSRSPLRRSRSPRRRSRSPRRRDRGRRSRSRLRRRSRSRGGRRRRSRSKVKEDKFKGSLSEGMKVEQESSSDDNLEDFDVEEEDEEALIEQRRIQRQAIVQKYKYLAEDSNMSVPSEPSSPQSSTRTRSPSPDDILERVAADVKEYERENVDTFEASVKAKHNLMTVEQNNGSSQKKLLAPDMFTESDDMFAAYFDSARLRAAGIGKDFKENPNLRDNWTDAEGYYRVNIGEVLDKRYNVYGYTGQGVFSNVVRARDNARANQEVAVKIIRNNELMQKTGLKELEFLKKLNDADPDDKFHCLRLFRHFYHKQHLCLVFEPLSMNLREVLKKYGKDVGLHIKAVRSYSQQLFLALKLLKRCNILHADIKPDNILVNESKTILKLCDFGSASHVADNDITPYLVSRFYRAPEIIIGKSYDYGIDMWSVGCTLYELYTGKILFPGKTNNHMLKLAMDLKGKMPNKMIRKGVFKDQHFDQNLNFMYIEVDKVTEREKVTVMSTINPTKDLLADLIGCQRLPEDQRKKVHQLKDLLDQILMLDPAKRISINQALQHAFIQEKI

[6] = biological target: T1, Dual specificity tyrosine-phosphorylation-regulated kinase 1A; assay: Inhibition of NanoLuc-fused human DYRK1A expressed in HEK293 cells using Nano-Glo as substrate incubated for 2 hrs by NanoBRET assay; type: cell-based
HeLa [7] = assay: Cytotoxicity against human HeLa cells assessed as cell viability at 30 uM incubated for 24 hrs by MTT assay; type: functional; details: read-out: Activity
[8] = biological target: T3, Serine/threonine-protein kinase PRP4 homolog; assay: Inhibition of DNA-tagged human PRP4 expressed in Escherichia coli incubated for 1.5 hrs by KINOMEscan assay
[9] = biological target: T1, Dual specificity tyrosine-phosphorylation-regulated kinase 1A; assay: Inhibition of human DYRK1A expressed in Sf9 insect cells at 1 uM incubated for 60 mins in presence of [gamma33P]ATP by microplate scintillation counter relative to control
[10] = biological target: Cyclin-dependent kinase 6 (Homo sapiens) (UniProt Q00534); assay: Inhibition of N-terminal GST-tagged full length human recombinant CDK6 expressed in Sf9 insect cells at 1 uM incubated for 60 mins in presence of [gamma33P]ATP by microplate scintillation counter relative to control
Chain of Cyclin-dependent kinase 6 (Homo sapiens) (Q00534 whole entry): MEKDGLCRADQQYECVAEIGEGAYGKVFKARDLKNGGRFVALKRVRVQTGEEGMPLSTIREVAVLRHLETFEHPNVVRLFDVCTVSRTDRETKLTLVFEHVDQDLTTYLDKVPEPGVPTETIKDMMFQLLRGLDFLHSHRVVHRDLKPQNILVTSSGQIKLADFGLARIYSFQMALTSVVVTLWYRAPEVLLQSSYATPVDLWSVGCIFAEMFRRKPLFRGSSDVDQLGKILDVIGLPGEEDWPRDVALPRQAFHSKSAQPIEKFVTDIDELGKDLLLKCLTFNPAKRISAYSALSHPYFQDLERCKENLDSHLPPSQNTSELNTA

[11] = biological target: T4, Serine/threonine-protein kinase TAO3 (Homo sapiens) (UniProt Q9H2K8); assay: Inhibition of full length human recombinant TAOK3 expressed in baculovirus infected Sf9 cells at 1 uM incubated for 60 mins in presence of [gamma33P]ATP by microplate scintillation counter relative to control
T4 sequence (whole entry): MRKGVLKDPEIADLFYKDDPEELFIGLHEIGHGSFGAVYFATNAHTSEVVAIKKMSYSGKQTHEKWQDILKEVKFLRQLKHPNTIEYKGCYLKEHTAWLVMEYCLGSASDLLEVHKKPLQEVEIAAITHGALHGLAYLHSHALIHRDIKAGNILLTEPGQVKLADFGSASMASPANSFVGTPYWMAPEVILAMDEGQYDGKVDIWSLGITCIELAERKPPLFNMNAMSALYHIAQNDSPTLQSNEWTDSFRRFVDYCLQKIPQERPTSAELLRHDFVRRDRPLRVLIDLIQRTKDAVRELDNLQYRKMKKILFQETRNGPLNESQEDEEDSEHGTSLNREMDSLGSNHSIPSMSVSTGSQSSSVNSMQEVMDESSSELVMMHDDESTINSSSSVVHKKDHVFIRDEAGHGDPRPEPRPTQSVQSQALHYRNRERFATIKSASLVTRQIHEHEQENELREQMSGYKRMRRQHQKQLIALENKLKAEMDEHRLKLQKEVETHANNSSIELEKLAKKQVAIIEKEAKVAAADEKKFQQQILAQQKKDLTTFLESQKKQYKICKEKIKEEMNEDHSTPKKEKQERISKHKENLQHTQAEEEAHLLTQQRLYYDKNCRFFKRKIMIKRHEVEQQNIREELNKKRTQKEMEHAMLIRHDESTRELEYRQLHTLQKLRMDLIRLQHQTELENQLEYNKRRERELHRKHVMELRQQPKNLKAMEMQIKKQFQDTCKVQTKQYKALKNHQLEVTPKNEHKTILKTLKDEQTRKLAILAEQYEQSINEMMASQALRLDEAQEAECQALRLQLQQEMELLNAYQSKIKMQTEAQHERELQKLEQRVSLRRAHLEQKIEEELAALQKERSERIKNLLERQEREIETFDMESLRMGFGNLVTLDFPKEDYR

[12] = biological target: Serine/threonine-protein kinase pim-3 (Homo sapiens) (UniProt Q86V86); assay: Inhibition of His6-tagged full length human recombinant PIM3 expressed in Sf9 insect cells at 1 uM incubated for 60 mins in presence of [gamma33P]ATP by microplate scintillation counter relative to control
[13] = biological target: Serine/threonine-protein kinase pim-1 (Homo sapiens) (UniProt P11309); assay: Inhibition of His6-tagged full length human recombinant PIM1 expressed in Sf9 insect cells at 1 uM incubated for 60 mins in presence of [gamma33P]ATP by microplate scintillation counter relative to control
Chain of Serine/threonine-protein kinase pim-1 (Homo sapiens) (P11309 whole entry, looked up): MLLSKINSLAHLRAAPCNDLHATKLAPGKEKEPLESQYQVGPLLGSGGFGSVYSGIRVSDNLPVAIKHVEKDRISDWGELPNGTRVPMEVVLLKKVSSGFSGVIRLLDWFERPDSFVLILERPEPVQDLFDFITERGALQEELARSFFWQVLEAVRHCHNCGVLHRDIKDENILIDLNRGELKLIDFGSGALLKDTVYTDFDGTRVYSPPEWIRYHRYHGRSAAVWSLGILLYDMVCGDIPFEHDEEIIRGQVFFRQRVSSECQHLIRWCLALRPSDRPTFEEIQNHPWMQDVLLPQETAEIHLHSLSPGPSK

[14] = biological target: T2, Dual specificity tyrosine-phosphorylation-regulated kinase 1B; assay: Inhibition of human DYRK1B expressed in Sf9 insect cells at 1 uM incubated for 60 mins in presence of [gamma33P]ATP by microplate scintillation counter relative to control
Target sequence in this assay (Q9Y463 whole entry, looked up, the tested form may be a part): as the sequence (Q9Y463 whole entry, the tested form may be a part) above

[15] = biological target: Cyclin-dependent kinase 4 (Homo sapiens) (UniProt P11802); assay: Inhibition of N-terminal GST-tagged full length human recombinant CDK4 expressed in Sf9 insect cells at 1 uM incubated for 60 mins in presence of [gamma33P]ATP by microplate scintillation counter relative to control
Chain of Cyclin-dependent kinase 4 (Homo sapiens) (P11802 whole entry): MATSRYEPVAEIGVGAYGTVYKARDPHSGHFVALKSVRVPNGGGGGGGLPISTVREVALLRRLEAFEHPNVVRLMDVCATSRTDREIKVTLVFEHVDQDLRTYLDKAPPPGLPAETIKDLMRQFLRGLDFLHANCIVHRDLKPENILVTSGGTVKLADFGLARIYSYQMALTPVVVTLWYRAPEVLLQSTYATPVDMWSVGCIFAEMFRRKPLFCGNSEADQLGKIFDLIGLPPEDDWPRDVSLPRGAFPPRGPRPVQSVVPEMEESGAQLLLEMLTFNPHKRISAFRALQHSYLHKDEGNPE

[16] = biological target: T5, Inhibitor of nuclear factor kappa-B kinase subunit alpha (Homo sapiens) (UniProt O15111); assay: Inhibition of full length human recombinant IKKalpha expressed in baculovirus infected Sf9 cells at 1 uM incubated for 60 mins in presence of [gamma33P]ATP by microplate scintillation counter relative to control
T5 sequence (whole entry): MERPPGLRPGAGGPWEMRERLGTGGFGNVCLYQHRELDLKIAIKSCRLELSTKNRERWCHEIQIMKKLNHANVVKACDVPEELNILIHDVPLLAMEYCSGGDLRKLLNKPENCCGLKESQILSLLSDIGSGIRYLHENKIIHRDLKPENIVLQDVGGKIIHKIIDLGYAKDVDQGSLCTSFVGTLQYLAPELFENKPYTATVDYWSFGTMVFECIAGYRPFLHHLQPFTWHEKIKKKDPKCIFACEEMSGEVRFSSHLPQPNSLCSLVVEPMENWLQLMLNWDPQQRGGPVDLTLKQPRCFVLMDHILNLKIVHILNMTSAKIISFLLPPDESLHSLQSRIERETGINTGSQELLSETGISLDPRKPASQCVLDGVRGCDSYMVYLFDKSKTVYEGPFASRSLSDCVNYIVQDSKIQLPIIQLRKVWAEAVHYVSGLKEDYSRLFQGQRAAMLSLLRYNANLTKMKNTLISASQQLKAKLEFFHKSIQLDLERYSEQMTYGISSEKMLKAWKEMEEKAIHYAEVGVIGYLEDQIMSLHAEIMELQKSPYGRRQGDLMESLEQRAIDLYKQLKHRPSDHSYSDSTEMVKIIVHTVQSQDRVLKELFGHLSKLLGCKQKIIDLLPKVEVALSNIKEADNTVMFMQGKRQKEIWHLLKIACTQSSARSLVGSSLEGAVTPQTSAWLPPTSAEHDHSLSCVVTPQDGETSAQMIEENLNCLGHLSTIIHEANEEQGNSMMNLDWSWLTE

[17] = Inhibition of His6-tagged full length human recombinant CDK11 expressed in Sf9 insect cells at 1 uM incubated for 60 mins in presence of [gamma33P]ATP by microplate scintillation counter relative to control
[18] = biological target: Cyclin-dependent kinase 8 (Homo sapiens) (UniProt P49336); assay: Inhibition of N-terminal GST-tagged full length human recombinant CDK8 expressed in Sf9 insect cells at 1 uM incubated for 60 mins in presence of [gamma33P]ATP by microplate scintillation counter relative to control
Chain of Cyclin-dependent kinase 8 (Homo sapiens) (P49336 whole entry): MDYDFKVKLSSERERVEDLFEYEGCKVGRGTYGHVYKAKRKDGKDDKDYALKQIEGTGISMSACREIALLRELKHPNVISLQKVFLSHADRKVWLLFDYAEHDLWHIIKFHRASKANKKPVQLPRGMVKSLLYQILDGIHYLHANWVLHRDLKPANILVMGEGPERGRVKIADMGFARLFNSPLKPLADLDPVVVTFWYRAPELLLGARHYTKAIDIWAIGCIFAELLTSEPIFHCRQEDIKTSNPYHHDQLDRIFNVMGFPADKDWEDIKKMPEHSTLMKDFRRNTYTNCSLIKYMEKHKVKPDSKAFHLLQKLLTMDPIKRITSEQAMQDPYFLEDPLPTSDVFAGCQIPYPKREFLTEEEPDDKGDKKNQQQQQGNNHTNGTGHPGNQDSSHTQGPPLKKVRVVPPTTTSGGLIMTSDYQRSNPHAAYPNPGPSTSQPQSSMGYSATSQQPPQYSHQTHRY

[19] = biological target: Cyclin-dependent kinase 5 (Homo sapiens) (UniProt Q00535); assay: Inhibition of N-terminal GST-tagged full length human recombinant CDK5 expressed in Sf9 insect cells at 1 uM incubated for 60 mins in presence of [gamma33P]ATP by microplate scintillation counter relative to control
Chain of Cyclin-dependent kinase 5 (Homo sapiens) (Q00535 whole entry, looked up): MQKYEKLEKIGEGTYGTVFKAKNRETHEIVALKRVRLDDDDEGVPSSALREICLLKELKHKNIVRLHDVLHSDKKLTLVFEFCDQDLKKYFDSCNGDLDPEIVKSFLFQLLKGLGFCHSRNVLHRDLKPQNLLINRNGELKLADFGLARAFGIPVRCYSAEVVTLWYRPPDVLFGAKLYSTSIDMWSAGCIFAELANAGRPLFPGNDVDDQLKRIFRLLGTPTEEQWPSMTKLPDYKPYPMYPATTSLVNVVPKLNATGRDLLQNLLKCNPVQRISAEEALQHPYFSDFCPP

[20] = biological target: Mitogen-activated protein kinase 7 (Homo sapiens) (UniProt Q13164); assay: Inhibition of N-terminal recombinant human ERK5 expressed in Sf9 insect cells at 1 uM incubated for 60 mins in presence of [gamma33P]ATP by microplate scintillation counter relative to control
[21] = biological target: Cyclin-dependent kinase 16 (Homo sapiens) (UniProt Q00536); assay: Inhibition of His6-tagged full length human recombinant CDK16 expressed in Sf9 insect cells at 1 uM incubated for 60 mins in presence of [gamma33P]ATP by microplate scintillation counter relative to control
Chain of Cyclin-dependent kinase 16 (Homo sapiens) (Q00536 whole entry): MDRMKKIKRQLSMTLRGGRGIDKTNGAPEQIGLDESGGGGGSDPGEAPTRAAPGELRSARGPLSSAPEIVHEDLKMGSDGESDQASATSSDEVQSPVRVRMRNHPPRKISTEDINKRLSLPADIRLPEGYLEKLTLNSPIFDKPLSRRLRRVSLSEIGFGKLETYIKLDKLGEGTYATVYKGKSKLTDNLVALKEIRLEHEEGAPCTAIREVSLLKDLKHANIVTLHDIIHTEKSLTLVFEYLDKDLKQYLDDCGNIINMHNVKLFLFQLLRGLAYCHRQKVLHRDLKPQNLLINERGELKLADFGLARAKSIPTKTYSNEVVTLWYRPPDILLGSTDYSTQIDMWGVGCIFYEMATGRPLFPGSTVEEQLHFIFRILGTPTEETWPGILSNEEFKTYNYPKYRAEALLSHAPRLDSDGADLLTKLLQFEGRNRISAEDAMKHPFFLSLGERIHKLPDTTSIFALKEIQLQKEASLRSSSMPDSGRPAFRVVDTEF

SMILES	Ki [1] [nM]	Ki [2] [nM]	IC50 [3] [nM]	IC50 [6] [nM]	further results
NC(=O)c1cc2c(-c3ccc(C(=O)N[C@H](CO)Cc4ccccc4)s3)cccc2s1	101	730	–	–	–
NC(=O)c1cc2c(-c3ccc(C(=O)NCC4CC4)s3)cccc2s1	95.1	980	–	–	–
NC(=O)c1cc2c(-c3ccc(C(=O)NCc4cccc(N)c4)s3)c(Cl)ccc2s1	93.4	1450	–	–	–
NC(=O)c1cc2c(-c3ccc(C(=O)NCc4ccccc4N)s3)cccc2s1	67.8	238	800	1100	Activity (HeLa [4]): Active; inhibition [5]: 38%; viability at 30 µM (HeLa [7]): > 75%; Ki [8]: 1300 nM
NC(=O)c1cc2c(-c3ccc(C(=O)NC4CCOCC4)s3)cccc2s1	178	1100	–	–	–
NC(=O)c1cc2c(-c3ccc(C(=O)NCc4ccc(N)cc4)s3)cccc2s1	26.8	187	3600	2700	–
NC(=O)c1cc2c(-c3ccc(C(=O)NCc4cccc(O)c4)s3)cccc2s1	73	370	–	–	–
NC(=O)c1cc2c(-c3ccc(C(=O)NCc4cccc(N)c4)s3)ccc(F)c2s1	491	2310	–	–	–
NC(=O)c1cc2c(-c3ccc(C(=O)NCc4cccc(O)c4)s3)c(Cl)ccc2s1	105	1130	–	–	–
NC(=O)c1cc2c(-c3ccc(C(=O)NCCn4cc(CO)nn4)s3)cccc2s1	118	448	–	–	–
NC(=O)c1cc2c(-c3ccc(C(=O)NCc4ccccc4O)s3)cccc2s1	9.9	65.3	3400	4400	–
NC(=O)c1cc2c(-c3ccc(C(=O)NC4CC4)s3)cccc2s1	160	670	–	–	–
NC(=O)c1cc2c(-c3ccc(C(=O)NCc4ccccc4)s3)cccc2s1	56.9	278	4300	4600	–
NC(=O)c1cc2c(-c3ccc(C(=O)NCc4cccc(Cl)c4)s3)cccc2s1	359	4400	–	–	–
NC(=O)c1cc2c(-c3ccc(C(=O)NCc4ccccc4O)s3)c(Cl)ccc2s1	85.3	1180	–	–	–
NC(=O)c1cc2c(-c3cc(N)c(C(=O)NC4CC4)s3)cccc2s1	89.5	814	–	–	–
NC(=O)c1cc2c(-c3ccc(C(=O)NCc4ccccc4N)s3)c(Cl)ccc2s1	36.2	577	700	1700	–
NC(=O)c1cc2c(-c3ccc(C(=O)NCc4ccnc(Cl)c4)s3)cccc2s1	85.9	642	1800	2000	inhibition [9]: > 35%; inhibition [10]: > 35%; inhibition [11]: > 35%; inhibition [12]: > 35%; inhibition [13]: > 35%; inhibition [14]: > 35%; inhibition [15]: > 35%; inhibition [16]: > 35%; inhibition [17]: > 35%; inhibition [18]: > 35%; inhibition [19]: > 35%; inhibition [20]: > 35%; inhibition [21]: > 35%
NC(=O)c1cc2c(-c3ccc(C(=O)NCc4cccc(N)c4)s3)cccc2s1	119	660	–	–	–
